Earlier results as cited in patent US20250281528A1, “GRAPHENE OXIDE-CATIONIC SILVER NANOCOMPOSITES AND THEIR USE AS BROAD-SPECTRUM ANTIMICROBIAL AGENTS” (priority 2020, published 2025).

What was measured:
Settings in all cases: literature values, refs in Table 6 footnotes
[1] = test system: Streptococcus pyogenes
[2] = test system: Vibrio cholerae
[3] = test system: Salmonella typhi
[4] = test system: Candida albicans

For `O=[N+]([O-])[O-].[Ag+]` [AgNO3, Silver Nitrate], the MIC [1] is listed as 80 ^c μg/mL, the MIC [2] is listed as 70 ^c μg/mL and the MIC [3] is listed as 110 ^c μg/mL. The MIC [4] was 4.9 ^f μg/mL.
